In ChEMBL document CHEMBL1129258, “Synthesis and structure-activity relationships of 2-pyridones: a novel series of potent DNA gyrase inhibitors as antibacterial agents” (J Med Chem, 1996):
Values after ≈ are worked out from the molar mass of the structure shown.

Columns and labels:
Enterococcus faecalis = assay: Inhibitory activity against enterococcus faecalis Van B; format: functional
Enterococcus faecium = assay: Inhibitory activity against enterococcus faecium Van A; format: functional
[1] = In vitro antibacterial activity against gram-negative organism Pseudomonas aeruginosa DPHD-2862; format: functional; conditions: Pseudomonas aeruginosa; read-out: MIC
[2] = molecular target: T1, DNA gyrase (Staphylococcus aureus) (UniProt P0A0K8+P20831); assay: In vitro antibacterial activity against gram-positive organism Staphylococcus aureus 1775; format: functional
[3] = In vitro antibacterial activity against gram-negative organism Pseudomonas aeruginosa 5007; format: functional; conditions: Pseudomonas aeruginosa; read-out: MIC
[4] = molecular target: T1, DNA gyrase (Staphylococcus aureus); assay: In vitro antibacterial activity against gram-positive organism Staphylococcus aureus ATCC 6538p; format: functional
Streptococcus pyogenes = assay: In vitro antibacterial activity against gram-positive organism Streptococcus pyogenes EES61; format: functional; conditions: Streptococcus pyogenes; read-out: MIC
[5] = molecular target: T2, DNA gyrase (Escherichia coli) (UniProt P0AES6+P0AES4); assay: In vitro antibacterial activity against gram-negative organism Klebsiella pneumoniae ATCC 8045; format: functional
[6] = molecular target: T2, DNA gyrase (Escherichia coli); assay: In vitro antibacterial activity against gram-positive organism Streptococcus bovis A-5169; format: functional; conditions: Streptococcus equinus
[7] = molecular target: T2, DNA gyrase (Escherichia coli); assay: In vitro antibacterial activity against gram-negative organism […] ATCC 13048; format: functional; conditions: Enterobacter aerogenes
[8] = molecular target: T2, DNA gyrase (Escherichia coli); conditions: Escherichia coli K-12
Description: Concentration which causes 50% of the gyrase (Escherichia coli H560)-mediated maximal DNA cleavage.

[9] = molecular target: T1, DNA gyrase (Staphylococcus aureus); assay: In vitro antibacterial activity against gram-positive organism Staphylococcus aureus NCTC-10649M; format: functional
[10] = molecular target: T2, DNA gyrase (Escherichia coli); assay: In vitro antibacterial activity against gram-negative organism Prov. stuartii CMX-640; format: functional; conditions: Providencia stuartii
[11] = molecular target: T2, DNA gyrase (Escherichia coli); assay: In vitro antibacterial activity against gram-positive organism Enterococcus faecium ATCC 8043; format: functional
[12] = molecular target: T2, DNA gyrase (Escherichia coli); assay: In vitro antibacterial against gram-negative organism Escherichia coli JUHL; format: functional; conditions: Escherichia coli K-12
[13] = molecular target: T1, DNA gyrase (Staphylococcus aureus); assay: In vivo efficacy against Staphylococcus aureus NCTC-10649M after subcutaneous administration; format: functional, organism-based
[14] = molecular target: T1, DNA gyrase (Staphylococcus aureus); assay: In vivo efficacy against Staphylococcus aureus NCTC-10649M after oral administration; format: functional, organism-based
[15] = molecular target: T2, DNA gyrase (Escherichia coli); assay: In vivo efficacy against Escherichia coli JUHL after oral administration; format: functional, organism-based; conditions: Escherichia coli K-12
[16] = molecular target: T2, DNA gyrase (Escherichia coli); assay: In vivo efficacy against Escherichia coli JUHL by subcutaneous administration; format: functional, organism-based; conditions: Escherichia coli K-12
[17] = In vivo efficacy against Pseudomonas aeruginosa 5007 after subcutaneous administration; format: functional; conditions: Pseudomonas aeruginosa, sc; read-out: ED50
Pseudomonas aeruginosa = assay: In vivo efficacy against Pseudomonas aeruginosa 5007 following p.o. administration.
Streptococcus pneumoniae = assay: In vivo efficacy against Strep. administration; format: functional

SMILES | MIC [1] | MIC [2] | MIC [3] | MIC [4] | MIC (Streptococcus pyogenes) | MIC [5] | MIC [6] | MIC [7] | MIC [9] | MIC [10] | MIC [11] | MIC [12] | ED50 [13] | ED50 [14] | ED50 [15] | ED50 [16] | CC50 [8] | ED50 [17] | further results
CN[C@H](CC(C)C)C(=O)N[C@H]1C(=O)N[C@@H](CC(N)=O)C(=O)N[C@H]2C(=O)N[C@H]3C(=O)N[C@H](C(=O)N[C@H](C(=O)O)c4cc(O)cc(O)c4-c4cc3ccc4O)[C@H](O)c3ccc(c(Cl)c3)Oc3cc2cc(c3O[C@@H]2O[C@H](CO)[C@@H](O)[C@H](O)[C@H]2O[C@H]2C[C@](C)(N)[C@H](O)[C@H](C)O2)Oc2ccc(cc2Cl)[C@H]1O [VANCOMYCIN] |  |  |  |  |  |  |  |  |  |  |  |  |  |  |  |  |  |  | MIC (Enterococcus faecalis): 32 µg/mL (≈ 22.1 µM); MIC (Enterococcus faecium): > 128 µg/mL
NC1CCN(c2c(F)cn3c(=O)c(C(=O)O)cc(C4CC4)c3c2F)C1 (stereo not drawn) | 6.2 µg/mL (≈ 17.7 µM) | 6.2 µg/mL (≈ 17.7 µM) | 0.39 µg/mL (≈ 1.12 µM) | 0.1 µg/mL (≈ 0.286 µM) | 0.78 µg/mL (≈ 2.23 µM) | 0.01 µg/mL (≈ 0.0286 µM) | 0.78 µg/mL (≈ 2.23 µM) | 0.02 µg/mL (≈ 0.0573 µM) | 0.1 µg/mL (≈ 0.286 µM) | 3.1 µg/mL (≈ 8.87 µM) | 0.78 µg/mL (≈ 2.23 µM) | 0.01 µg/mL (≈ 0.0286 µM) | 2.9 mg/kg | 14.6 mg/kg |  |  | 2.2 µg/mL (≈ 6.3 µM) |  | 
CC(NC1CCN(c2nc3c(-c4ccc(F)cc4F)cc(C(=O)O)c(=O)n3cc2F)C1)C(=O)O (stereo not drawn) |  |  |  |  |  |  |  |  |  |  |  |  | 2.7 mg/kg | 14.4 mg/kg | 16.6 mg/kg | < 2.5 mg/kg |  | 34.4 mg/kg | ED50 (Pseudomonas aeruginosa): 68.8 mg/kg; ED50 (Streptococcus pneumoniae): 79.8 mg/kg; ED50 (Streptococcus pneumoniae; Streptococcus pneumoniae, read-out: ED50): 164 mg/kg
Cc1c(N2CC[C@@]3(C[C@H]3N)C2)c(F)cn2c(=O)c(C(=O)O)cc(C3CC3)c12 | 6.2 µg/mL (≈ 16.7 µM) | 0.39 µg/mL (≈ 1.05 µM) | 0.39 µg/mL (≈ 1.05 µM) | 0.005 µg/mL (≈ 0.0135 µM) | 0.02 µg/mL (≈ 0.0538 µM) | 0.01 µg/mL (≈ 0.0269 µM) |  | 0.05 µg/mL (≈ 0.135 µM) | 0.01 µg/mL (≈ 0.0269 µM) | 0.78 µg/mL (≈ 2.1 µM) | 0.05 µg/mL (≈ 0.135 µM) | 0.01 µg/mL (≈ 0.0269 µM) | 1.5 mg/kg | 6.3 mg/kg | 12.8 mg/kg | 1.9 mg/kg |  |  | 
Cc1c(N2C[C@H]3CCN[C@H]3C2)c(F)cn2c(=O)c(C(=O)O)cc(C3CC3)c12 (single isomer, unassigned) | 6.2 µg/mL (≈ 16.7 µM) | 6.2 µg/mL (≈ 16.7 µM) | 0.39 µg/mL (≈ 1.05 µM) | 0.05 µg/mL (≈ 0.135 µM) |  | 0.02 µg/mL (≈ 0.0538 µM) | 0.39 µg/mL (≈ 1.05 µM) | 0.05 µg/mL (≈ 0.135 µM) | 0.1 µg/mL (≈ 0.269 µM) | 0.39 µg/mL (≈ 1.05 µM) | 0.2 µg/mL (≈ 0.538 µM) | 0.05 µg/mL (≈ 0.135 µM) | 0.6 mg/kg | 1.5 mg/kg | 1.1 mg/kg | 0.5 mg/kg |  | 5 mg/kg | ED50 (Pseudomonas aeruginosa): 17.9 mg/kg
NC1CCN(c2nc3c(C4CC4)cc(C(=O)O)c(=O)n3cc2F)C1 (stereo not drawn) | 25 µg/mL (≈ 75.2 µM) | 25 µg/mL (≈ 75.2 µM) | 0.39 µg/mL (≈ 1.17 µM) | 0.2 µg/mL (≈ 0.602 µM) | 1.56 µg/mL (≈ 4.69 µM) | 0.02 µg/mL (≈ 0.0602 µM) | 3.1 µg/mL (≈ 9.33 µM) | 0.02 µg/mL (≈ 0.0602 µM) | 0.2 µg/mL (≈ 0.602 µM) | 1.56 µg/mL (≈ 4.69 µM) | 1.56 µg/mL (≈ 4.69 µM) | 0.02 µg/mL (≈ 0.0602 µM) | > 8 mg/kg | > 12 mg/kg | 4.7 mg/kg | 1 mg/kg | 0.15 µg/mL (≈ 0.451 µM) |  | 

Continued by falling MIC [2], values first:

MIC [1] | MIC [2] | MIC [3] | MIC [4] | MIC (Streptococcus pyogenes) | MIC [5] | MIC [6] | MIC [7] | MIC [9] | MIC [10] | MIC [11] | MIC [12] | ED50 [13] | ED50 [14] | ED50 [15] | ED50 [16] | SMILES | CC50 [8] | ED50 [17] | further results
25 µg/mL (≈ 63.2 µM) | 0.39 µg/mL (≈ 0.986 µM) | 1.56 µg/mL (≈ 3.95 µM) | 0.02 µg/mL (≈ 0.0506 µM) | 0.1 µg/mL (≈ 0.253 µM) | 0.05 µg/mL (≈ 0.126 µM) | 0.2 µg/mL (≈ 0.506 µM) | 0.39 µg/mL (≈ 0.986 µM) | 0.01 µg/mL (≈ 0.0253 µM) | 1.56 µg/mL (≈ 3.95 µM) | 0.1 µg/mL (≈ 0.253 µM) | 0.1 µg/mL (≈ 0.253 µM) |  |  |  |  | Cc1c(N2CCC(n3cccc3)C2)c(F)cn2c(=O)c(C(=O)O)cc(C3CC3)c12 (stereo not drawn) | 0.04 µg/mL (≈ 0.101 µM) |  | MIC (Enterococcus faecalis): 0.03 µg/mL (≈ 0.0759 µM); MIC (Enterococcus faecium): 0.5 µg/mL (≈ 1.26 µM)
 | 0.39 µg/mL (≈ 1.05 µM) |  | 0.02 µg/mL (≈ 0.0538 µM) |  | 0.01 µg/mL (≈ 0.0269 µM) | 0.05 µg/mL (≈ 0.135 µM) | 0.05 µg/mL (≈ 0.135 µM) | 0.02 µg/mL (≈ 0.0538 µM) | 0.78 µg/mL (≈ 2.1 µM) | 0.05 µg/mL (≈ 0.135 µM) | 0.02 µg/mL (≈ 0.0538 µM) | 0.7 mg/kg | 5 mg/kg | 2.5 mg/kg | 0.4 mg/kg | Cc1c(N2C[C@@H]3CCN[C@@H]3C2)c(F)cn2c(=O)c(C(=O)O)cc(C3CC3)c12 (stereo in doubt; 45o) | 0.1 µg/mL (≈ 0.269 µM) |  | 
3.1 µg/mL (≈ 8.3 µM) | 0.2 µg/mL (≈ 0.536 µM) | 0.2 µg/mL (≈ 0.536 µM) | 0.002 µg/mL (≈ 0.00536 µM) | < 0.001 µg/mL | 0.01 µg/mL (≈ 0.0268 µM) | 0.005 µg/mL (≈ 0.0134 µM) | 0.02 µg/mL (≈ 0.0536 µM) | 0.002 µg/mL (≈ 0.00536 µM) | 0.39 µg/mL (≈ 1.04 µM) | 0.01 µg/mL (≈ 0.0268 µM) | 0.01 µg/mL (≈ 0.0268 µM) | 0.3 mg/kg | 1.2 mg/kg |  |  | Cc1c(N2CC[C@H]([C@@H](C)N)C2)c(F)cn2c(=O)c(C(=O)O)cc(C3CC3)c12 | 0.6 µg/mL (≈ 1.61 µM) | > 8 mg/kg | 
6.2 µg/mL (≈ 15.5 µM) | 0.1 µg/mL (≈ 0.25 µM) | 0.39 µg/mL (≈ 0.976 µM) | 0.005 µg/mL (≈ 0.0125 µM) | 0.005 µg/mL (≈ 0.0125 µM) | 0.02 µg/mL (≈ 0.0501 µM) | 0.002 µg/mL (≈ 0.00501 µM) | 0.1 µg/mL (≈ 0.25 µM) | 0.005 µg/mL (≈ 0.0125 µM) | 0.39 µg/mL (≈ 0.976 µM) | 0.02 µg/mL (≈ 0.0501 µM) | 0.01 µg/mL (≈ 0.025 µM) | 0.3 mg/kg | 1.4 mg/kg |  |  | Cc1c(N2C[C@H]3CCC[C@@H](N)[C@H]3C2)c(F)cn2c(=O)c(C(=O)O)cc(C3CC3)c12 |  |  | 
